Laboratory results: US20240082293A1, “A VAGINAL CONTRACEPTIVE COMPOSITION FOR REINFORCEMENT OF MUCUS BARRIER PROPERTIES” (CIRQLE BIOMEDICAL CONTRACEPTION ApS, priority 2019, published 2024)

Tested on: human sperm penetration through human ovulatory cervical mucus
Assay: Sperm penetration assay through ovulatory cervical mucus in capillaries (phase contrast microscopy)
Format: cell-based
Details: for sperm penetration through mucus treated with poly-L-lysine (barrier reinforcing effect): PLL 5 mg/mL in 32.5 mM lactic acid solution, 30 minutes after exposure to undiluted sperm
Protocol: Semen samples of patients and volunteers collected at the Andrology, Sexual Medicine, Transmedicine, clinic (ANOVA, Karolinska University Hospital, Sweden) were run through standard semen kinematic analyses and sperm penetration assays no later than 3 h after collection. Data were obtained for the collection time, abstinence time, and semen volume. Semen was gently liquefied for 30 min on a rocker in an incubation chamber heated up to 37° C., after complete collection of ejaculates by masturbation. The viscosity of semen was determined visually and by pipetting. Semen was microscopically analysed by pipetting 6 μl of specimen in pre-warmed Leja® (Netherland) counting chamber slides (20 micron). Subsequently, specimens were assessed via clinical ECLIPSE 50i microscope (Nikon Instruments, Japan) equipped with stage heater MS 100 (37° C., Linkam Scientific Instruments, UK), 10× objective (Ph1) and 0.5× charge coupled device camera UI-1540LE-M-HQ (IDS Imaging Development Systems GmbH, Germany) with total magnification of 5×. The system was connected to the Computer Aided Semen Analysis software QualiSperm (v3.0.9.486, AKYmed, Switzerland). Beside the sperm concentration [106/m1], the progressive motility [%], motility [%], immotility [%], velocity [μm/s], sperm size [μm2], and number of cells were measured. Semen samples meeting the following criteria were included in this study: volume of >1.5 ml, concentration of >15×10^6/mland >40% progressive motility. These criteria reflect reference limits of the World Health Organization (WHO) (“WHO Laboratory Manual for the Examination and Processing of Human Semen” 2010) and values for normal spermatozoa as stated in Bjorndahl (Lars Bjorndahl. 2011. “What Is Normal Semen Quality? On the Use and Abuse of Reference Limits for the Interpretation of Semen Analysis Results.” Human Fertility 14 (3): 179-86). In each run, ten values were generated by assessing five fields in two chambers.
Ovulatory cervical mucus (CVM) (the CVM with highest penetrability) was collected from healthy donors at the Karolinska University Hospital. […]

Row | Substance | sperm penetration through mucus treated with poly-L-lysine (barrier reinforcing effect) | point at which no sperm is seen (distance into the mucus) (sperm numbers assessed 30 minutes after exposure to undiluted sperm, polymer in lactic acid solution)
1 | poly-L-lysine [66 KDa PLL] | able to prevent the entrance of the sperm | around 3 cm
2 | poly-L-lysine [low molecular weight PLL] | did not have any effect | –
